Assay results published in patent US8877707B2, “Inhibitors of HCV NS5A” (Presidio Pharmaceuticals, Inc., priority 2010, dated 2014).
Where two headings read alike, the source gives them in different places.

Tested on: HCV genotype 1b replicon in Huh 7 cells
Experiment: HCV replicon assay (1b_Huh-Luc/Neo-ET cell line, luciferase readout)
Type: cell-based
Details: Hepatitis C virus, read-out: Inhibition of HCV genotype 1b
In short: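 Replicon level was read as luciferase signal after 72 h compound exposure, triplicate wells, starting the day after cells were plated. Cell line: 1b_Huh-Luc/Neo-ET. Values normalised to control as percent, and EC50 fitted with a variable-slope sigmoid; determinations repeated.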

[1] = Table 2, genotype 1b replicon, Huh 7 cells, 72 h, luciferase
[2] = Table 1, genotype 1b replicon, Huh 7 cells, 72 h, luciferase

Compound | EC50 [2] | other results
COC(=O)N[C@H](C(=O)N1CCC[C@H]1CNC(=O)c1ccc(-c2ccc3cc(-c4cnc([C@@H]5CCCN5C(=O)[C@@H](NC(=O)OC)C5CCOCC5)[nH]4)ccc3c2)cc1)C1CCOCC1 [compound 573] | – | EC50 (Huh-7, HCV 1b replicon): < 1 nM
COC(=O)N[C@H](C(=O)N1CCCC[C@H]1c1ncc(-c2ccc3cc(-c4ccc(-c5cnc([C@@H]6CCCN6C(=O)[C@@H](NC(=O)OC)C(C)C)[nH]5)cc4)ccc3c2)[nH]1)C(C)C [compound 307] | – | EC50 [1]: < 1 nM
COC(=O)N[C@H](C(=O)N1CCC[C@H]1c1nc(-c2ccc3cc(-c4ccc(-c5cnc([C@@H]6CCCN6C(=O)[C@@H](NC(=O)OC)C(C)C)[nH]5)cc4C)ccc3c2)c[nH]1)C(C)C [compound 85] | < 1 nM | –
COC(=O)N[C@@H](C(=O)N1CCC[C@H]1c1ncc(-c2ccc3cc(-c4ccc5nc([C@@H]6CCCN6C(=O)[C@H](NC(=O)OC)C6=CCC=CC6)[nH]c5n4)ccc3c2)[nH]1)C1=CCC=CC1 [compound 523] | – | EC50 (Huh-7, HCV 1b replicon): < 1 nM
COC(=O)N[C@H](C(=O)N1CCC[C@H]1c1nc(-c2cnc3cc(-c4ccc(-c5cnc([C@@H]6CCCN6C(=O)[C@@H](NC(=O)OC)C6CCOCC6)[nH]5)cn4)ccc3c2)c[nH]1)C(C)C [compound 62] | < 1 nM | –
COC(=O)N[C@H](C(=O)N1CCC[C@H]1c1ncc(-c2ccc3cc(-c4ccc5nc([C@@H]6CCCN6C(=O)[C@H](NC(=O)OC)c6ccccc6)[nH]c5c4)ccc3c2)[nH]1)C(C)C [compound 181] | < 1 nM | –
COC(=O)N[C@@H](C)C(=O)N1CCC[C@H]1c1ncc(-c2ccc3cc(-c4ccc5nc([C@@H]6COCCN6C(=O)[C@H](C)NC(=O)OC)[nH]c5c4)ccc3c2)[nH]1 [compound 359] | – | EC50 [1]: < 1 nM
COC(=O)N[C@H](C(=O)N1CCC[C@H]1c1ncc(-c2ccc(-c3cccc4c(-c5cnc([C@@H]6CCCN6C(=O)[C@@H](NC(=O)OC)C(C)C)[nH]5)cccc34)cc2)[nH]1)C(C)C [compound 20] | < 1 nM | –
